In publication PMC4601023, “Novel anticancer agent, SQAP, binds to focal adhesion kinase and modulates its activity” (Scientific Reports, 2015):

Experiments:
[1] = tested on: HUVEC cells; assay: In vitro cell migration assay (Oris kit), HUVEC; assay type: cell-based, human; details: 96 well cell migration kit
Protocol: Figure 6 SQAP inhibits cell migration in vitro. (A) HUVEC cells were seeded and grown to 100% confluence in 60-mm diameter dishes. After generating a single scratch in the monolayer, the cells were cultured for 11 h in medium containing 1% FBS and VEGF (50 ng/mL) in the presence or absence of SQAP. Photographs were taken immediately after 11 h. (B) The change in wound width was measured as described in the Materials and Methods. (C) A549 cells were seeded and grown to 100% confluence in 60-mm diameter dishes. After generating a single scratch in the monolayer, the cells cultured for the 25 h in media containing 1% FBS and fibronectin (10 μg/ml) treated with SQAP or vehicle. Photographs were collected immediately after wounding and after 25 h. (D) The change in wound width was measured as described in the Materials and Methods. Cell migration was additionally examined in 96 well plates. HUVEC (E) and A549 cells (F) were seeded and grown into confluence overnight. […] The fluorescent emission signal was obtained with a plate reader. […]
Wound healing was additionally assessed in HUVEC or A549 cells using a cell migration kit (Oris, Madison, WI, USA) as described by the manufacturer. […] The fluorescence emission signal in the migration zones was measured on a Wallac Arvo 5x microplate reader (Perkin Elmer, Waltham, MA, USA).

[2] = molecular target: T1, FAK (910–1052) (Homo sapiens, UniProt Q05397); assay: SPR analysis, immobilized His-tagged FAK (910-1052); assay type: binding; details: Biacore 3000, CM5 chip, 25 °C, read-out: dissociation constant (KD) for FAK
T1 construct: For FAK (910–1052) DNA was amplified; made in house; host or cells: E. coli BL21 (DE3)
From the text: (§1) SPR was utilized as an independent confirmation of the kinetic parameters between SQAP and the putative binding proteins. […] The recombinant proteins were then expressed in Escherichia coli and purified to homogeneity. In addition, full length, His-tagged ADRM1 and GST-tagged HR23B (GST-HR23B) were also used. The proteins were first immobilized on a CM5 sensor chip of the SPR biosensor (Biacore 3000). For GST-HR23B analysis, a GST protein was additionally immobilized and used as a control in order to eliminate possible nonspecific binding of SQAP. SQAP samples at different concentrations were then injected over the proteins immobilized on the sensor chip. As a negative control we used sulfoquynovosylpropanediol (SQP), which lacks the fatty acid moiety of SQAP (Fig. 1). […]
(§2) The binding kinetics of SCP-2, MFE-2, ADRM1, HR23B and FAK with SQAP and SQP were analyzed on a Biacore 3000 instrument (GE Healthcare, Little Chalfont, UK). […] The buffer of purified peptides was exchanged to HBS-P (150 mM NaCl, 0.005% Surfactant P20, 10 mM HEPES-NaOH pH 7.4) using a PD 10 column (GE Healthcare, Little Chalfont, UK) and the concentrations were quantified using DC protein assay kit (Bio-Rad Laboratories, Hercules, CA, USA). […] Kinetic parameters were determined by analyzing the data using BIAevaluation 4.1 software (GE Healthcare, Little Chalfont, UK).

[3] = molecular target: T2, ADRM1 (Homo sapiens, UniProt Q16186); assay: SPR analysis, immobilized full length His-ADRM1; assay type: binding; details: Biacore 3000, CM5 chip, 25 °C, read-out: dissociation constant (KD) for ADRM1
T2 construct: ADRM1 and HR23B human full length proteins were purchased; His-tag; purchased ATgen (Gyeonggi-do, Korea)
From the text: as §1, §2

[4] = molecular target: T3, SCP-2 (400–547) (Homo sapiens, UniProt P22307); assay: SPR analysis, immobilized His-tagged SCP-2 (400-547); assay type: binding; details: Biacore 3000, CM5 chip, 25 °C, read-out: dissociation constant (KD) for SCP-2
T3 construct: DNA encoding SCP-2 (400–547) was amplified; made in house; host or cells: E. coli Rosetta 2 (DE3) pLysS
From the text: as §1, §2

T3 sequence (P22307 400-547): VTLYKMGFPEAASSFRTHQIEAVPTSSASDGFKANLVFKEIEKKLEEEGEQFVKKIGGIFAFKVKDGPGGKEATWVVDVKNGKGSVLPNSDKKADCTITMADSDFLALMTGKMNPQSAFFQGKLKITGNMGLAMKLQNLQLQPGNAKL
T1 sequence (Q05397 910-1052): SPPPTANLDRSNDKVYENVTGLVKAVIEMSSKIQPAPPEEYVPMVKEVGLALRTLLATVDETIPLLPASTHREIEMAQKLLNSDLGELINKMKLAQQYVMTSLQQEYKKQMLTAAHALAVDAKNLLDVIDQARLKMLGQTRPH
T2 sequence (Q16186 whole entry): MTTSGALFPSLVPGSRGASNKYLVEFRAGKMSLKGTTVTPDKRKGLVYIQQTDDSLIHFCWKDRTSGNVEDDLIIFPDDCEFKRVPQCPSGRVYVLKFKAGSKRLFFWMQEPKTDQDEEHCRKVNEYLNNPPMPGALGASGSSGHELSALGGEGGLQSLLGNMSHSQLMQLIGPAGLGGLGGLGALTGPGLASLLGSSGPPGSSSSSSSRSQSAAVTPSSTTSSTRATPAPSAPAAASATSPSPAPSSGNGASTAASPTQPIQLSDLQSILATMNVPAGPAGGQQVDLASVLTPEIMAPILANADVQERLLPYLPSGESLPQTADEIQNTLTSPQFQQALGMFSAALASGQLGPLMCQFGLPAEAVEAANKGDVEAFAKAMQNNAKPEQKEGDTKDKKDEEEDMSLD

In the case of `CCCCCCCCCCCCCCCCCC(=O)OCCCO[C@H]1O[C@H](CS(=O)(=O)O)[C@@H](O)[C@H](O)[C@H]1O` [SQAP, sulfoquynovosylacylpropanediol], the cell migration [1] is reported as “arrested”, the Kd [2] is reported as 3.24 µM and the Kd [3] is reported as 9.65 µM. It also gave a Kd [4] of 15.6 µM.
